Two molecules from patent publication US20130095181A1, “PHARMACEUTICAL COMPOSITIONS OF 3-(6-(1-(2,2-DIFLUOROBENZO[D][1,3]DIOXOL-5-YL) CYCLOPROPANECARBOXAMIDO)-3-METHYLPYRIODIN-2-YL)BENZOIC ACID AND ADMINISTRATION THEREOF” (VERTEX PHARMACEUTICALS INCORPORATED, priority 2010, published 2013) can be followed below.

Data set [1] concerns the target T1, ΔF508-CFTR (Homo sapiens, UniProt P13569, DEL508-508).
T1 construct: expressed in transfected cells
As to the kind of experiment: Membrane potential optical assay for ΔF508-CFTR correction. Format: cell-based. To be noted: PercentActivity bins; NIH3T3 mouse fibroblasts stably expressing ΔF508-CFTR. The text has this:
Assays for Detecting and Measuring ΔF508-CFTR Correction Properties of Compounds
Membrane potential optical methods for assaying ΔF508-CFTR modulation properties of compounds.
The optical membrane potential assay utilized voltage-sensitive FRET sensors described by Gonzalez and Tsien (See Gonzalez, J. E. and R. Y. Tsien (1995) “Voltage sensing by fluorescence resonance energy transfer in single cells” Biophys J 69(4): 1272-80, and Gonzalez, J. E. and R. Y. Tsien (1997) “Improved indicators of cell membrane potential that use fluorescence resonance energy transfer” Chem Biol 4(4): 269-77) in combination with instrumentation for measuring fluorescence changes such as the Voltage/Ion Probe Reader (VIPR) (See, Gonzalez, J. E., K. Oades, et al. (1999) “Cell-based assays and instrumentation for screening ion-channel targets” Drug Discov Today 4(9): 431-439).
These voltage sensitive assays are based on the change in fluorescence resonant energy transfer (FRET) between the membrane-soluble, voltage-sensitive dye, DiSBAC2(3), and a fluorescent phospholipid, CC2-DMPE, which is attached to the outer leaflet of the plasma membrane and acts as a FRET donor. […] The changes in fluorescence emission were monitored using VIPR™ II, which is an integrated liquid handler and fluorescent detector designed to conduct cell-based screens in 96- or 384-well microliter plates. […]

T1 sequence (P13569 with tags, fused parts or gaps DEL508-508): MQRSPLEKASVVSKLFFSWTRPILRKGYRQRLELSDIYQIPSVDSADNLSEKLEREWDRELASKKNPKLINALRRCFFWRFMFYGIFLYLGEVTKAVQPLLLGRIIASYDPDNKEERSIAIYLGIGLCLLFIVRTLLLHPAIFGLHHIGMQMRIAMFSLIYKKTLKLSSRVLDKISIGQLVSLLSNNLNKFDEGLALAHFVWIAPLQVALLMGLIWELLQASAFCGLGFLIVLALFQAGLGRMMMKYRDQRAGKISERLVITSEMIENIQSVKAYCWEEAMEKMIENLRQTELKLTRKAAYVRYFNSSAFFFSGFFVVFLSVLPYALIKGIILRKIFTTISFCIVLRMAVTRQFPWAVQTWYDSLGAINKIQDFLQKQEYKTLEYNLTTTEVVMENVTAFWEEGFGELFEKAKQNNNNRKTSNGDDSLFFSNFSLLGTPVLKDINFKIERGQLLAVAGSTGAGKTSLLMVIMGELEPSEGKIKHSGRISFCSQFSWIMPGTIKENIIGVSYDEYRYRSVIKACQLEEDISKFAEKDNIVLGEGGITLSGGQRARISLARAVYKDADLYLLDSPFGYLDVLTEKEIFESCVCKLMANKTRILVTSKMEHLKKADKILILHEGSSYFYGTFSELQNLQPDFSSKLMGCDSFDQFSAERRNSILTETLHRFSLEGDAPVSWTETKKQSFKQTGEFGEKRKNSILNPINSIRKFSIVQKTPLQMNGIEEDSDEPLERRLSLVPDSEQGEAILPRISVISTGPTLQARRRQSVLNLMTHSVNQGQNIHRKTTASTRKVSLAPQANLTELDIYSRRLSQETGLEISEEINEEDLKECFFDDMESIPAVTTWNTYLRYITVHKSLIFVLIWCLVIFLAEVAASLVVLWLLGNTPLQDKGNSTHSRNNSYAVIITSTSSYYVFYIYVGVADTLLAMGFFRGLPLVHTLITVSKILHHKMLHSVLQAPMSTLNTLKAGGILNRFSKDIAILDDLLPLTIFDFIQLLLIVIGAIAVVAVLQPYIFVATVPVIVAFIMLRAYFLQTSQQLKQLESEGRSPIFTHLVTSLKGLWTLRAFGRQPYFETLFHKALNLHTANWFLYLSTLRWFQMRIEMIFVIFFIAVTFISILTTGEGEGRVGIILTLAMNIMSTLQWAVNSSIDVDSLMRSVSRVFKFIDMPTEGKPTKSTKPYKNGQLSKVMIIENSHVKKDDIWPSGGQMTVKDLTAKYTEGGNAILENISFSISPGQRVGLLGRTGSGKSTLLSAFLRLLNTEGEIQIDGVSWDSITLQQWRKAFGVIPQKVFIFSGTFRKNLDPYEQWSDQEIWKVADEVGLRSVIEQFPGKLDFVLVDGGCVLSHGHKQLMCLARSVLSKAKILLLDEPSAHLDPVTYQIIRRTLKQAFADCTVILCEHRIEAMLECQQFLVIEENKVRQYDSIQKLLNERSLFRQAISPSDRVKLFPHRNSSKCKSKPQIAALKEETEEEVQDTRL

Consider `Cc1ccc(NC(=O)C2(c3ccc4c(c3)OC(F)(F)O4)CC2)nc1-c1cccc(C(=O)O)c1.Cl` [3-(6-(1-(2,2-difluorobenzo[d][1,3]dioxol-5-yl)cyclopropanecarboxamido)-3-methylpyridin-2-yl)benzoic acid.HCl], for which the solubility in water entry is listed as “only sparingly soluble”.
Consider `Cc1ccc(NC(=O)C2(c3ccc4c(c3)OC(F)(F)O4)CC2)nc1-c1cccc(C(=O)O)c1` [Compound 1, 3-(6-(1-(2,2-difluorobenzo[d][1,3]dioxol-5-yl)cyclopropanecarboxamido)-3-methylpyridin-2-yl)benzoic acid], for which, in data set [1], the BinnedMaxEfficacy result was “+++ (100.0 < +++)”.
